pIC50: −log10 of the molar value. Active and inactive are the calls of the source. The calls are words filed in the database; no cut-off is given here.
What was measured:
[1] = target: Dual specificity calcium/calmodulin-dependent 3',5'-cyclic nucleotide phosphodiesterase 1C (Homo sapiens, UniProt Q14123); assay: Inhibition of PDE1C (147 to 531 residues) (unknown origin) using 3H-cGMP as substrate incubated for 15 mins by liquid scintillation counter analysis
Mus musculus [2] = assay: Anti-inflammatory bowel disease activity in DSS-induced inflammatory bowel disease C57BL/6 mouse model assessed as increase in colon length at 5 mg/kg,ip BID for 7 days by vernier calipers analysis; type: functional, organism-based; settings: time 7.0 day
[3] = target: cGMP-inhibited 3',5'-cyclic phosphodiesterase 3A (Homo sapiens, UniProt Q14432); assay: Inhibition of PDE3A (679 to 1087 residues) (unknown origin) using 3H-cAMP as substrate incubated for 15 mins by liquid scintillation counter analysis
Mus musculus [4] = assay: Anti-inflammatory bowel disease activity in DSS-induced inflammatory bowel disease C57BL/6 mouse model assessed as reduction in histological inflammation in colon at 5 mg/kg,ip BID for 7 days by Hematoxylin and eosin staining based microscopy; type: functional, organism-based; settings: time 7.0 day
[5] = target: 3',5'-cyclic-AMP phosphodiesterase 4D (Homo sapiens, UniProt Q08499); assay: Inhibition of PDE4D (86 to 413 residues) (unknown origin) using 3H-cAMP as substrate incubated for 15 mins by liquid scintillation counter analysis
3',5'-cyclic-AMP phosphodiesterase 4D, sequence (Q08499 whole entry, the tested form may be a part): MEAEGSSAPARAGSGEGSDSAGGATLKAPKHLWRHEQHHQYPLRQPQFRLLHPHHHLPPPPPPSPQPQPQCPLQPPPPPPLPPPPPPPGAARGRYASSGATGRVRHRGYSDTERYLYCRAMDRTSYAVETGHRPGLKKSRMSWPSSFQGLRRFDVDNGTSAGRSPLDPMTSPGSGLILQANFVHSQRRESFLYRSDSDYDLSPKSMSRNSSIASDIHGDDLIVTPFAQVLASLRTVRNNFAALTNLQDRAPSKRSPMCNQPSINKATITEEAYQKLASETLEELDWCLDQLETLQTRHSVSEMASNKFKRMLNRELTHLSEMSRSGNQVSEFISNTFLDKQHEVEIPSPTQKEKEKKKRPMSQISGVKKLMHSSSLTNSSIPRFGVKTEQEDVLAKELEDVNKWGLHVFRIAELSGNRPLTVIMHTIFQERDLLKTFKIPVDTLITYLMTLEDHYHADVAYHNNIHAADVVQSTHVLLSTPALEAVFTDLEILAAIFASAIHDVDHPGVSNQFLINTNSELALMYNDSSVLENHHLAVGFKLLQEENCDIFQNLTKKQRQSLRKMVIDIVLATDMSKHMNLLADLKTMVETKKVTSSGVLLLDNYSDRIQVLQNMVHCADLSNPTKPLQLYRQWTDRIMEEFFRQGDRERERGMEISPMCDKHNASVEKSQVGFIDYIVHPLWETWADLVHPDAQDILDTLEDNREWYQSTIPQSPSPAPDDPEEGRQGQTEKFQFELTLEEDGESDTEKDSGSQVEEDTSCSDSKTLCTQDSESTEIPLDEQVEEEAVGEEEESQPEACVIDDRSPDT

[6] = target: High affinity cAMP-specific and IBMX-insensitive 3',5'-cyclic phosphodiesterase 8A (Homo sapiens, UniProt O60658); assay: Inhibition of PDE8A (480 to 820 residues) (unknown origin) using 3H-cAMP as substrate incubated for 15 mins by liquid scintillation counter analysis
RAW264.7 [7] = assay: Anti-inflammatory activity in mouse RAW264.7 cells assessed as reduction in LPS-induced NO release at 5 to 10 uM incubated for 24 hrs by Griess method; type: functional, cell-based; settings: dose 5-10 µM
[8] = target: High affinity cGMP-specific 3',5'-cyclic phosphodiesterase 9A (Homo sapiens, UniProt O76083); assay: Inhibition of PDE9A (181 to 506 residues) (unknown origin) using 3H-cGMP as substrate incubated for 15 mins by liquid scintillation counter analysis
High affinity cGMP-specific 3',5'-cyclic phosphodiesterase 9A, sequence (O76083 whole entry, the tested form may be a part): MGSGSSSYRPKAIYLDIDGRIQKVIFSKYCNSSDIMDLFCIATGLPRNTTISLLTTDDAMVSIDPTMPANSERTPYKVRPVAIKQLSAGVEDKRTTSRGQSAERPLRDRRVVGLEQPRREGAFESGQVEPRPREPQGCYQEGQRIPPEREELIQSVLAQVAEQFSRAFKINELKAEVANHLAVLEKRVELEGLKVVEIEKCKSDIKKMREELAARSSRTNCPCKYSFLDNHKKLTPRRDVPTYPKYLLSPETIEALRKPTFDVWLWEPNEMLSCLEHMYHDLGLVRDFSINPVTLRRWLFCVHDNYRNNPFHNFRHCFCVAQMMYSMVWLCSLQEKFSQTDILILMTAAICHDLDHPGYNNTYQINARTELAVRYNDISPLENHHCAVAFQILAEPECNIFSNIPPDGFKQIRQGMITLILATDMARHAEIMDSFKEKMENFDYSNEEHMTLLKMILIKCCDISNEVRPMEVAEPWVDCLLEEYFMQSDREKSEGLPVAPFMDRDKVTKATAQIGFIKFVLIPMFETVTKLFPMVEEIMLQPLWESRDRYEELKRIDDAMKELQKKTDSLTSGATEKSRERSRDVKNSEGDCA

[9] = Metabolic stability in rat liver microsomes assessed as half life
RAW264.7 [10] = assay: Anti-inflammatory activity in mouse RAW264.7 cells assessed as reduction in LPS-induced iNOS mRNA expression at 5 to 10 uM incubated for 24 hrs by qPCR analysis; type: functional, cell-based; settings: dose 5-10 µM
RAW264.7 [11] = assay: Anti-inflammatory activity in mouse RAW264.7 cells assessed as reduction in LPS-induced IL-1beta mRNA expression at 5 to 10 uM incubated for 24 hrs by qPCR analysis; type: functional, cell-based; settings: dose 5-10 µM
RAW264.7 [12] = assay: Anti-inflammatory activity in mouse RAW264.7 cells assessed as reduction in LPS-induced TNF-alpha mRNA expression at 5 to 10 uM incubated for 24 hrs by qPCR analysis; type: functional, cell-based; settings: dose 5-10 µM
RAW264.7 [13] = assay: Anti-inflammatory activity in mouse RAW264.7 cells assessed as reduction in LPS-induced IL-6 mRNA expression at 5 to 10 uM incubated for 24 hrs by qPCR analysis; type: functional, cell-based; settings: dose 5-10 µM
RAW264.7 [14] = assay: Anti-inflammatory activity in mouse RAW264.7 cells assessed as reduction in LPS-induced IL-1alpha mRNA expression at 5 to 10 uM incubated for 24 hrs by qPCR analysis; type: functional, cell-based; settings: dose 5-10 µM
Mus musculus [15] = assay: Anti-inflammatory bowel disease activity in DSS-induced inflammatory bowel disease C57BL/6 mouse model assessed as decrease in diarrhoea by measuring disease activity index score at 5 mg/kg,ip BID for 7 days; type: functional, organism-based; settings: time 7.0 day
Mus musculus [16] = assay: Anti-inflammatory bowel disease activity in DSS-induced inflammatory bowel disease C57BL/6 mouse model assessed as protection of colon crypt structures at 5 mg/kg,ip BID for 7 days by Hematoxylin and eosin staining based microscopy; type: functional, organism-based; settings: time 7.0 day
[17] = target: cAMP and cAMP-inhibited cGMP 3',5'-cyclic phosphodiesterase 10A (Homo sapiens, UniProt Q9Y233); assay: Inhibition of PDE10A (449 to 770 residues) (unknown origin) using 3H-cAMP as substrate incubated for 15 mins by liquid scintillation counter analysis
cAMP and cAMP-inhibited cGMP 3',5'-cyclic phosphodiesterase 10A, sequence (Q9Y233 whole entry, the tested form may be a part): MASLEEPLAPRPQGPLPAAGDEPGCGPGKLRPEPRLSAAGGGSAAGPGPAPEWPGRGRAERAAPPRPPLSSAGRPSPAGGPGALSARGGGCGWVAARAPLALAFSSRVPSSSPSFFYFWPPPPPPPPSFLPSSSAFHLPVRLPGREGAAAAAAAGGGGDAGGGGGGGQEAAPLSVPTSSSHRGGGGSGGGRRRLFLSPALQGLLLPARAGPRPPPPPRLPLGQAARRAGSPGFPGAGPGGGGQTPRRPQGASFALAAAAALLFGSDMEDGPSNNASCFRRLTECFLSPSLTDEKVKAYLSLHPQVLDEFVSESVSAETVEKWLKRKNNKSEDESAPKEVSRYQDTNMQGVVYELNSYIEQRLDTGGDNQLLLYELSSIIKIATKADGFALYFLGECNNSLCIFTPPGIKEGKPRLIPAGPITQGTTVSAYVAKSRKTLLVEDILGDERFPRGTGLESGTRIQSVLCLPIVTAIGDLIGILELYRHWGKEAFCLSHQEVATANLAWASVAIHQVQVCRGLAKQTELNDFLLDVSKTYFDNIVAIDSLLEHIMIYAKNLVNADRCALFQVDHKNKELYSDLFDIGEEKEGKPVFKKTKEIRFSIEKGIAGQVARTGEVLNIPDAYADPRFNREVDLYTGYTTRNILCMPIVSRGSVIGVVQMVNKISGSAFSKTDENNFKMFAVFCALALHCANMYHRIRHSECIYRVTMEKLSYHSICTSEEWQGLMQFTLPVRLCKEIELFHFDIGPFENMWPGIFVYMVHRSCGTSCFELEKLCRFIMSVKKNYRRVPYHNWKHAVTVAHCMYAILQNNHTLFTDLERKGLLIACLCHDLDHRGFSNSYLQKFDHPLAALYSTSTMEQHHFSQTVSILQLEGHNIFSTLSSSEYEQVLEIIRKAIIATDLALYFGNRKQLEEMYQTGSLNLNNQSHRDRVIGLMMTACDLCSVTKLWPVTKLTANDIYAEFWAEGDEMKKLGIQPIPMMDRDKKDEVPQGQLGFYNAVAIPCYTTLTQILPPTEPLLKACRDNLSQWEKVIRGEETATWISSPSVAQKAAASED

[18] = target: cGMP-dependent 3',5'-cyclic phosphodiesterase (Homo sapiens, UniProt O00408); assay: Inhibition of PDE2A (580 to 919 residues) (unknown origin) using 3H-cGMP as substrate incubated for 15 mins by liquid scintillation counter analysis
cGMP-dependent 3',5'-cyclic phosphodiesterase, sequence (O00408 whole entry, the tested form may be a part): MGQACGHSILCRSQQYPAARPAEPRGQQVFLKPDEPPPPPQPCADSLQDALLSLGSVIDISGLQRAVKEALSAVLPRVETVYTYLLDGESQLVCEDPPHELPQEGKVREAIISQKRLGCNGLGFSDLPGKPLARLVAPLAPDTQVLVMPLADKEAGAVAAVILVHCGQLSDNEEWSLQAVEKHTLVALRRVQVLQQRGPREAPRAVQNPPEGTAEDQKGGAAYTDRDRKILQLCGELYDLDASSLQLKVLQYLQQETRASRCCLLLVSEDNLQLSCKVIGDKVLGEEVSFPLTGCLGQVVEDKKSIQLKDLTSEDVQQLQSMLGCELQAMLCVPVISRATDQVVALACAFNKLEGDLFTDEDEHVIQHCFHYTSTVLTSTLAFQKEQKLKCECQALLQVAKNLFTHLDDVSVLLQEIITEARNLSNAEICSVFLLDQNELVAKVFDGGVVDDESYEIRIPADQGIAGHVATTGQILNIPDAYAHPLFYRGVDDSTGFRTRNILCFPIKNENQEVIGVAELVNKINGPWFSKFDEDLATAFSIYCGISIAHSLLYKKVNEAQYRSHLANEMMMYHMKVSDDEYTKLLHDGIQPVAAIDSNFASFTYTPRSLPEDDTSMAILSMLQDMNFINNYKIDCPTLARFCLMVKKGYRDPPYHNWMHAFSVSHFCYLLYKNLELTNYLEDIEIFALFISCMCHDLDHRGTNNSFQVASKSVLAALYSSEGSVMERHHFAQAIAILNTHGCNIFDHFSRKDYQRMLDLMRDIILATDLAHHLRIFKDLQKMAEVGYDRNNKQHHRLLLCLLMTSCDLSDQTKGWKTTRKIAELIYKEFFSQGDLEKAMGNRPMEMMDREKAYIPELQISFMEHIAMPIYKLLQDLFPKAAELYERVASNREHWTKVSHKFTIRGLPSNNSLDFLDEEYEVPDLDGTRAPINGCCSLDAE

Mus musculus [19] = assay: Anti-inflammatory bowel disease activity in DSS-induced inflammatory bowel disease C57BL/6 mouse model assessed as decrease in body weight loss by measuring disease activity index score at 5 mg/kg,ip BID for 7 days; type: functional, organism-based; settings: time 7.0 day
Mus musculus [20] = assay: Anti-inflammatory bowel disease activity in DSS-induced inflammatory bowel disease C57BL/6 mouse model assessed as decrease in fecal occult blood by measuring disease activity index score at 5 mg/kg,ip BID for 7 days; type: functional, organism-based; settings: time 7.0 day
[21] = target: cGMP-specific 3',5'-cyclic phosphodiesterase (Homo sapiens, UniProt O76074); assay: Inhibition of PDE5A1 (535 to 860 residues) (unknown origin) using 3H-cGMP as substrate incubated for 15 mins by liquid scintillation counter analysis
[22] = target: High affinity 3',5'-cyclic-AMP phosphodiesterase 7A (Homo sapiens, UniProt Q13946); assay: Inhibition of PDE7A (130 to 482 residues) (unknown origin) using 3H-cAMP as substrate incubated for 15 mins by liquid scintillation counter analysis
High affinity 3',5'-cyclic-AMP phosphodiesterase 7A, sequence (Q13946 whole entry, the tested form may be a part): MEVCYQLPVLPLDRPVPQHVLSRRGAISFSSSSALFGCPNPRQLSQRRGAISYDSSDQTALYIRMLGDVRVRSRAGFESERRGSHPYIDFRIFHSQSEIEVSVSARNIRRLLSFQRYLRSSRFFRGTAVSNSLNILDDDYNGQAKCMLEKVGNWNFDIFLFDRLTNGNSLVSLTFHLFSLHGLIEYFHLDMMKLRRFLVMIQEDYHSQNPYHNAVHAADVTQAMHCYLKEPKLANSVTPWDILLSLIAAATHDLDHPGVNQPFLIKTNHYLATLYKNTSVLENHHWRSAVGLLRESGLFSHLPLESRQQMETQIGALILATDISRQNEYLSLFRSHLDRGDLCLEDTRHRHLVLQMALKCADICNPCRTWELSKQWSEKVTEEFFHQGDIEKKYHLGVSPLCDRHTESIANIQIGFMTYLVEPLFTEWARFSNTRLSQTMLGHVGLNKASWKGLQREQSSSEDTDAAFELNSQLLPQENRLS

Mus musculus [23] = assay: Anti-inflammatory bowel disease activity in DSS-induced inflammatory bowel disease C57BL/6 mouse model assessed as decrease in body weight loss by measuring disease activity index score at 25 mg/kg,ip BID for 7 days; type: functional, organism-based; settings: time 7.0 day
Mus musculus [24] = assay: Anti-inflammatory bowel disease activity in DSS-induced inflammatory bowel disease C57BL/6 mouse model assessed as decrease in diarrhoea by measuring disease activity index score at 25 mg/kg,ip BID for 7 days; type: functional, organism-based; settings: time 7.0 day
[25] = Toxicity in DSS-induced inflammatory bowel disease C57BL/6 mouse model assessed as body weight change at 25 mg/kg,ip BID for 7 days; type: organism-based; settings: in vivo, 168 h, time 7 day
Mus musculus [26] = assay: Anti-inflammatory bowel disease activity in DSS-induced inflammatory bowel disease C57BL/6 mouse model assessed as decrease in fecal occult blood by measuring disease activity index score at 25 mg/kg,ip BID for 7 days by Hemo-occult test; type: functional, organism-based; settings: time 7.0 day
Mus musculus [27] = assay: Anti-inflammatory bowel disease activity in DSS-induced inflammatory bowel disease C57BL/6 mouse model assessed as increase in colon length at 25 mg/kg,ip BID for 7 days by vernier calipers analysis; type: functional, organism-based; settings: time 7.0 day

Dual specificity calcium/calmodulin-dependent 3',5'-cyclic nucleotide phosphodiesterase 1C, sequence (Q14123 whole entry, the tested form may be a part): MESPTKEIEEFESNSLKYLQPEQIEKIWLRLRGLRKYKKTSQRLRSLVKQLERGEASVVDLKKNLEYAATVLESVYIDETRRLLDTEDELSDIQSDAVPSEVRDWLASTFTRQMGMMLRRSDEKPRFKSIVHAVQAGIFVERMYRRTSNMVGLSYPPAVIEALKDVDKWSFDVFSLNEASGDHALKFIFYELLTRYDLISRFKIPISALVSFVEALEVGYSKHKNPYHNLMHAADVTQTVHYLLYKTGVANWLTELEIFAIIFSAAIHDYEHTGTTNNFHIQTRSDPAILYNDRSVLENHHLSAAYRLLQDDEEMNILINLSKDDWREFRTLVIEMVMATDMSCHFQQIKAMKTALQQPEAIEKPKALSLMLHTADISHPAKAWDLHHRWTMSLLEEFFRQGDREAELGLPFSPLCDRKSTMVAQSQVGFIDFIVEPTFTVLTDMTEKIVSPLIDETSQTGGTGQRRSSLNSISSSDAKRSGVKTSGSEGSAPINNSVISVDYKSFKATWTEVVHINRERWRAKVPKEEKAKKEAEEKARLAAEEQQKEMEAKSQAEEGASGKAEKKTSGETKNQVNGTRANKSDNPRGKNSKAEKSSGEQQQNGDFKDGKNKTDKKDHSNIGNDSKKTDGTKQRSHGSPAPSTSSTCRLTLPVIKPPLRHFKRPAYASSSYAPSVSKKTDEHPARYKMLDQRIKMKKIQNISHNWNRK

## CC(Nc1ccc2c(C3CC3)c(C#N)c(=O)n(Cc3ccccc3)c2c1)c1ccccn1 (configuration not stated)
[1]
  pIC50: 6.66

## CCCCNc1ccc2c(-c3ccc(C)cc3)c(C#N)c(=O)n(Cc3ccccc3)c2c1
[1]
  pIC50: < 6.00

## C[C@H](Nc1ccc2c(C3CCCC3)c(C#N)c(=O)n(CC3CCCC3)c2c1)c1ccccn1
[1]
  pIC50: 7.80

## CC(Nc1ccc2c(C3CCCC3)c(C#N)c(=O)n(CC3CCCC3)c2c1)c1ccccn1 (configuration not stated)
[1]
  pIC50: 7.72

## Cc1ccc(-c2c(C#N)c(=O)n(Cc3ccccc3)c3cc(NC(C)c4ccccc4)ccc23)cc1 (configuration not stated)
[1]
  pIC50: 7.26

## N#Cc1c(C2CCCC2)c2ccc(NCc3ccc(F)cn3)cc2n(CC2CCCC2)c1=O
Mus musculus [2]
  Activity: Active
[3]
  pIC50: < 5.00
[1]
  pIC50: 7.82
Mus musculus [4]
  Activity: Active
[5]
  pIC50: 6.21
[6]
  pIC50: < 5.00
RAW264.7 [7]
  Activity: Dose-Dependent Effect
[8]
  pIC50: < 5.00
[9]
  half-life: 1.6 min
RAW264.7 [10]
  Activity: Dose-Dependent Effect
RAW264.7 [11]
  Activity: Dose-Dependent Effect
RAW264.7 [12]
  Activity: Dose-Dependent Effect
RAW264.7 [13]
  Activity: Dose-Dependent Effect
RAW264.7 [14]
  Activity: Dose-Dependent Effect
Mus musculus [15]
  Activity: Active
Mus musculus [16]
  Activity: Active
[17]
  pIC50: 5.52
[18]
  pIC50: < 5.00
Mus musculus [19]
  Activity: Active
Mus musculus [20]
  Activity: Active
[21]
  pIC50: 5.66
[22]
  pIC50: 5.64

## Cc1ccc(-c2c(C#N)c(=O)n(Cc3ccccc3)c3ccccc23)cc1
[1]
  pIC50: 7.32
[8]
  pIC50: 5.23

## Cc1ccc(-c2c(C#N)c(=O)n(Cc3ccncc3)c3cc(NC(C)c4ccccn4)ccc23)cc1 (configuration not stated)
[1]
  pIC50: < 6.00

## C[C@@H](Nc1ccc2c(C3CCCC3)c(C#N)c(=O)n(CC3CCCC3)c2c1)c1ccccn1
[1]
  pIC50: 7.42

## Cc1ccc(-c2c(C#N)c(=O)n(Cc3ccccc3)c3cc(NC(C)c4ccccn4)ccc23)cc1 (configuration not stated)
[1]
  pIC50: 7.82

## CC(Nc1ccc2c(C(C)(C)C)c(C#N)c(=O)n(Cc3ccccc3)c2c1)c1ccccn1 (configuration not stated)
[1]
  pIC50: 7.08

## CC(Nc1ccc2c(C3CCCC3)c(C#N)c(=O)n(Cc3ccccc3)c2c1)c1ccccn1 (configuration not stated)
[1]
  pIC50: 7.70

## CCCCCn1c(=O)c(C#N)c(-c2ccc(C)cc2)c2ccc(NC(C)c3ccccn3)cc21 (configuration not stated)
[1]
  pIC50: < 6.00

## N#Cc1c(C2CCCC2)c2ccc(NCC3CCOCC3)cc2n(CC2CCCC2)c1=O
[1]
  pIC50: < 6.00

## OCCN(CCO)c1nc(N2CCCCC2)c2nc(N(CCO)CCO)nc(N3CCCCC3)c2n1 [DIPYRIDAMOLE]
Mus musculus [23]
  Activity: Active
Mus musculus [24]
  Activity: Active
[25]
  Activity: Toxic
Mus musculus [26]
  Activity: Active
Mus musculus [27]
  Activity: Active

## Cc1ccc(-c2c(C#N)c(=O)[nH]c3ccccc23)cc1
[1]
  pIC50: 6.35
[8]
  pIC50: 8.05

## Cc1ccc(-c2c(C#N)c(=O)n(Cc3ccccc3)c3c(NC(C)c4ccccn4)cccc23)cc1 (configuration not stated)
[1]
  pIC50: < 6.00

## Cc1ccc(-c2c(C#N)c(=O)n(Cc3ccccc3)c3ccc(NC(C)c4ccccn4)cc23)cc1 (configuration not stated)
[1]
  pIC50: 7.62

## Cc1ccc(-c2c(C#N)c(=O)n(CC3CCCC3)c3cc(NC(C)c4ccccn4)ccc23)cc1 (configuration not stated)
[1]
  pIC50: 7.60

## CC(C)c1c(C#N)c(=O)n(Cc2ccccc2)c2cc(NC(C)c3ccccn3)ccc12 (configuration not stated)
[1]
  pIC50: 7.66

Reference: ChEMBL document CHEMBL5321271, “Identification of Novel Quinolin-2(1H)-ones as Phosphodiesterase 1 Inhibitors for the Treatment of Inflammatory Bowel Disease” (J Med Chem, 2023)
